Data: patent US20040002609A1, “Synthesis of 3,3,4,4-tetrafluoropyrrolidine and novel dipeptidyl peptidase-IV inhibitor compounds” (Pfizer Inc., priority 2002, published 2004)

melting point [°C] | SMILES
278 | N[C@H](C(=O)N1CC(F)(F)C(F)(F)C1)C1CCCCC1 [Example 3, (S)-2-Amino-2-cyclohexyl-1-(3,3,4,4-tetrafluoro-pyrrolidin-1-yl)-ethanone]
234 to 238 | CC(C)[C@H](N)C(=O)N1CC(F)(F)C(F)(F)C1 [Example 5, (S)-2-Amino-3-methyl-1-(3,3,4,4-tetrafluoro-pyrrolidin-1-yl)-butan-1-one]
